Several values for one entry are separate records, joined by “and”; a condition that tells them apart may be missing. Equal values may be shown once.
How the values were obtained:
A. baumannii ATCC 17978 = assay: MIC screening against Gram-negative pathogens: A. baumannii
Description: MIC measurements were based on a method previously described[6]. Overnight liquid cultures of E. coli BW, E. coli C0244, A. baumannii ATCC 17978, K. pneumoniae ATCC 43816, P. aeruginosa PA01 and E. faecium ATCC 19434 strains were inoculated with a single colony from a freshly streaked agar plate of the corresponding bacterial strain and cultured in M9 minimal medium supplemented with amino acids[6]. The bacterial culture was prepared by washing 1 mL of overnight culture in PBS pH 7.4 (x3), then diluted to OD600 = 0.5 and used to inoculate 1:1000 in M9 minimal medium with amino acids in 96-well plates. Compounds were added to 96-well plates in two-fold serial dilutions. The plates were incubated stationary at 37 °C for 18 h, then OD600 was measured. […] The assay was performed in duplicate.

in vivo = conditions: female, CD-1, mouse
S. aureus = assay: MIC screening: S. aureus; assay type: cell-based
Description: Supplement media-1.docx, table 4: Supplemental Table S4. MIC screening of C48 against a panel of pathogens and strains | column: C48 MIC (µM)^b

Mtb = assay: Membrane fluidity measurements (laurdan GP); assay type: cell-based, Mycobacterium tuberculosis; conditions: 150 nM
BioA = BioA (Mycobacterium tuberculosis, UniProt P9WQ81); assay: BioA inhibition assay (coupled BioA/BioD fluorescence displacement, IC50); assay type: biochemical
BioA, sequence (P9WQ81 whole entry, looked up): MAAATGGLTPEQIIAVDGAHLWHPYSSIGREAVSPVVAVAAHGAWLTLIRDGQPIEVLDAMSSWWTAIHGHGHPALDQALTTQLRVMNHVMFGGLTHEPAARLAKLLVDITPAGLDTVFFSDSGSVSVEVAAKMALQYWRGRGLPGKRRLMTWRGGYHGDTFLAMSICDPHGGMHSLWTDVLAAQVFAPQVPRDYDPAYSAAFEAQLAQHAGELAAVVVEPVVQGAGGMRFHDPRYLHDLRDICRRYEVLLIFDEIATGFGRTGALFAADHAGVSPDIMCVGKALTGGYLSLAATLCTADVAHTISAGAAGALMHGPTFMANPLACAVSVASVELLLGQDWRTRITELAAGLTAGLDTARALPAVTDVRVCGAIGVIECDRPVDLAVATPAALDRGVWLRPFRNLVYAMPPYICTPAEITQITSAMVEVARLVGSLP

WT H37Rv = assay: Agar MIC of C48; assay type: cell-based; conditions: Mycobacterium tuberculosis, 504 h

For `O=C1CCc2cc(N3CCN(C(=O)c4ccc(F)c(Br)c4)CC3)ncc21` [C48], which MIC (A. baumannii ATCC 17978) is on record?
The MIC was “inactive”.

And the half-life (in vivo)?
The half-life was 54.6 min.

And the Vd (in vivo; iv)?
The Vd was 0.26 L/kg.

And the clearance (in vivo; iv)?
Its clearance is 3.2 mL/min/kg.

And the half-life (in vivo; iv)?
Its half-life is 54.6 min.

And the AUC(0-inf) (in vivo; po, 25 mg/kg)?
Its AUC(0-inf) is 146 µg·h/mL.

What about the bioavailability (in vivo; po, 25 mg/kg) of the same molecule?
Its bioavailability is over 100%.

And the MIC (S. aureus)?
Its MIC is “inactive”.

And the “Laurdan GP” value (Mtb; +Biotin)?
The value was 0.2273 and 0.2244 and 0.2183.

What about the “Laurdan GP” value (Mtb; -Biotin) of the same molecule?
Its value is 0.2797 and 0.2817 and 0.2774.

What about the “laurdan GP change” value (Mtb; without biotin) of the same molecule?
Its value is “increase”.

And the IC50 (BioA; 50 nM BioA)?
The IC50 was 34 nM.

And the activity (BioA; C48 2.60123 nM, 50 nM BioA)?
Its activity is 100% and 105%.

What about the activity at 0.00260123 µM (BioA; C48 2.60123 nM, 50 nM BioA) of the same molecule?
The activity at 0.00260123 µM was 99.5%.

What about the activity (BioA; C48 3.90184 nM, 50 nM BioA) of the same molecule?
Its activity is 98% and 101%.

What about the activity at 0.00390184 µM (BioA; C48 3.90184 nM, 50 nM BioA) of the same molecule?
Its activity at 0.00390184 µM is 95.4%.

What about the activity (BioA; C48 5.85277 nM, 50 nM BioA) of the same molecule?
The activity was 98.6% and 97%.

And the activity at 0.00585277 µM (BioA; C48 5.85277 nM, 50 nM BioA)?
The activity at 0.00585277 µM was 96.2%.

And the activity (BioA; C48 8.77915 nM, 50 nM BioA)?
Its activity is 94.6% and 97.2%.

And the activity at 0.00877915 µM (BioA; C48 8.77915 nM, 50 nM BioA)?
Its activity at 0.00877915 µM is 94%.

What about the activity (BioA; C48 13.1687 nM, 50 nM BioA) of the same molecule?
Its activity is 90.9% and 91.4%.

What about the activity at 0.0131687 µM (BioA; C48 13.1687 nM, 50 nM BioA) of the same molecule?
Its activity at 0.0131687 µM is 90.4%.

What about the activity (BioA; C48 19.7531 nM, 50 nM BioA) of the same molecule?
Its activity is 81.3% and 85.6%.

And the activity at 0.0197531 µM (BioA; C48 19.7531 nM, 50 nM BioA)?
The activity at 0.0197531 µM was 80.3%.

What about the activity (BioA; C48 29.6296 nM, 50 nM BioA) of the same molecule?
The activity was 64.4% and 66.5%.

And the activity at 0.0296296 µM (BioA; C48 29.6296 nM, 50 nM BioA)?
Its activity at 0.0296296 µM is 63.7%.

What about the activity (BioA; C48 44.4444 nM, 50 nM BioA) of the same molecule?
Its activity is 19.1% and 25.7%.

What about the activity at 0.0444444 µM (BioA; C48 44.4444 nM, 50 nM BioA) of the same molecule?
The activity at 0.0444444 µM was 20.9%.

What about the activity (BioA; C48 66.6667 nM, 50 nM BioA) of the same molecule?
Its activity is 0.926% and 1.11%.

What about the activity at 0.0666667 µM (BioA; C48 66.6667 nM, 50 nM BioA) of the same molecule?
The activity at 0.0666667 µM was 1.35%.

What about the remaining activity at 0.00114183 µM (BioA; read-out: Vi/Vo %) of the same molecule?
The remaining activity at 0.00114183 µM was 103%.

What about the remaining activity at 0.00171274 µM (BioA; read-out: Vi/Vo %) of the same molecule?
The remaining activity at 0.00171274 µM was 106%.

And the remaining activity at 0.00256912 µM (BioA; read-out: Vi/Vo %)?
Its remaining activity at 0.00256912 µM is 106%.

What about the remaining activity at 0.00385367 µM (BioA; read-out: Vi/Vo %) of the same molecule?
The remaining activity at 0.00385367 µM was 97%.

What about the remaining activity at 0.00578051 µM (BioA; read-out: Vi/Vo %) of the same molecule?
Its remaining activity at 0.00578051 µM is 96.5%.

And the remaining activity at 0.00867076 µM (BioA; read-out: Vi/Vo %)?
Its remaining activity at 0.00867076 µM is 89.3%.

And the remaining activity at 0.0130061 µM (BioA; read-out: Vi/Vo %)?
The remaining activity at 0.0130061 µM was 88.9%.

What about the remaining activity at 0.0195092 µM (BioA; read-out: Vi/Vo %) of the same molecule?
The remaining activity at 0.0195092 µM was 78.8%.

What about the remaining activity at 0.0292638 µM (BioA; read-out: Vi/Vo %) of the same molecule?
The remaining activity at 0.0292638 µM was 60.8%.

And the remaining activity at 0.0438957 µM (BioA; read-out: Vi/Vo %)?
Its remaining activity at 0.0438957 µM is 42%.

What about the remaining activity at 0.0658436 µM (BioA; read-out: Vi/Vo %) of the same molecule?
The remaining activity at 0.0658436 µM was 0%.

And the remaining activity at 0.0987654 µM (BioA; read-out: Vi/Vo %)?
Its remaining activity at 0.0987654 µM is 0%.

What about the remaining activity at 0.148148 µM (BioA; read-out: Vi/Vo %) of the same molecule?
The remaining activity at 0.148148 µM was 0%.

And the remaining activity at 0.222222 µM (BioA; read-out: Vi/Vo %)?
The remaining activity at 0.222222 µM was 0%.

What about the remaining activity at 0.333333 µM (BioA; read-out: Vi/Vo %) of the same molecule?
The remaining activity at 0.333333 µM was 0%.

What about the MIC (WT H37Rv) of the same molecule?
Its MIC is 0.8 µM.

Source: paper doi:10.1101/2025.09.24.678246 (bioRxiv, 2025)
